The source of these data is patent US20150238487A1, “NOVEL ERGOLINE DERIVATIVES AND USES THEREOF” (MAP Pharmaceuticals, Inc., priority 2012, published 2015).

The target of one assay is T1, Serotonin 5-HT1A (Homo sapiens, UniProt P08908).
T1 construct: expressed in transfected cells; host or cells: CHO-K1 (membrane extracts)
As to the kind of experiment: GTPγ[35S] assay, Serotonin 5-HT1A. The format is biochemical. The settings on record: agonism, CHO-K1 membranes. As for the experimental part:
(§1) Receptor […] activity assays were performed using 8′OH-2-CF3-dihydroergotamine (8′OH-2-CF3-DHE). Table 1 summarizes the cell lines (CHO-K1/HEK293 transfected with relevant human receptor) and the assays performed to detect any agonist or antagonist activity.
GTPγS studies were conducted to monitor agonist activity for 8′OH-2CF3-dihydroergotamine (8′OH-2CF3-DHE) against the receptors indicated in Table 1 above. Reagents used were the following: Assay buffer (20 mM HEPES, pH 7.4; 100 mM NaCl; 10 μg/mL saponin; 30 mM MgCl2); Membranes (recombinant human receptor membrane extracts were thawed on ice and diluted in assay buffer to give 1000 μg/mL ([…]) and kept on ice); GDP (diluted in assay buffer to give 30 μM solution (3 μM final concentration); beads (PVT-WGA (Amersham, RPNQ001), diluted in assay buffer at 25 mg/mL (0.25 mg/10 μL)); GTPγ^35S (Perkin Elmer, NEG030X), diluted in assay buffer to give 0.1 nM (final concentration); and ligand (agonist/antagonist diluted in assay buffer).
Membranes were mixed with GDP (1:1) and incubated for at least 15 minutes on ice. In parallel GTPγ^35S was mixed with the beads (1:1) just before starting the reaction. […] The plates were then centrifuged for 10 minutes at 2000 rpm and incubated at room temperature for 1 hour and counted for 1 min/well with a Perkin Elmer TopCount reader.

The target in a further assay is T2, Serotonin 5-HT2A (Homo sapiens, UniProt P28223).
T2 construct: expressed in transfected cells; host or cells: CHO-K1 mAeq Gα16
T2 sequence (P28223 whole entry): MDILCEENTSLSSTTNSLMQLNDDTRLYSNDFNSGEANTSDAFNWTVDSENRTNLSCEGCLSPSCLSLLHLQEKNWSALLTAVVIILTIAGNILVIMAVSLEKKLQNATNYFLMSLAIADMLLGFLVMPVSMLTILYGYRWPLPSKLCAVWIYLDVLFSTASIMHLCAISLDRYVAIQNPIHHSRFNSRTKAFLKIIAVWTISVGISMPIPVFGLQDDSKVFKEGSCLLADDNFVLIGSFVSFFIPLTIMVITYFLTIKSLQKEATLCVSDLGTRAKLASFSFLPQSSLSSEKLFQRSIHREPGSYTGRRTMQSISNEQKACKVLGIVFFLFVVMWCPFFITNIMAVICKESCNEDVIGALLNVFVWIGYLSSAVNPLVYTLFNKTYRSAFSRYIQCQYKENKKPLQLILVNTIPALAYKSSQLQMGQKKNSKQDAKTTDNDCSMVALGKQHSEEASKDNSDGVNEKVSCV
Description: Aequorin assay, Serotonin 5-HT2A. The format is cell-based. The settings on record: agonism; CHO-K1 mAeq Gα16, Aequorin. As to the method: as §1
(§2) Aequorin assays were conducted to monitor activity for 8′OH-2CF3-dihydroergotamine (8′OH-2CF3-DHE) against the receptors indicated in Table 1 above (except for mGlu3 and mGlu5). CHO-K1 cells coexpressing mitochondrial apoaequorin and the recombinant human receptor of interest were grown to mid-log phase in culture media without antibiotics and then detached with PBS-EDTA, centrifuged and resuspended in assay buffer (DMEM/HAM's F12 with HEPES, without phenol red+0.1% BSA, protease free) at a concentration of 1×10^6 cell/mL. […]
(§3) 50 μL of the cell suspension was mixed with 50 μL of test or reference agonist in a 96-well plate. The resulting emission of light was recorded using Hamamatsu Functional Drug Screening System 6000 (FDSS 6000) luminometer. […]
(§4) To standardize the emission of recorded light (and determine of the “100% signal”) across plates and across different experiments, some wells contained 100 μM digitonin or a saturating concentration of ATP (20 μM).

The target of a further assay is T3, Adrenergic α1A (Homo sapiens, UniProt P35348).
T3 construct: expressed in transfected cells; host or cells: CHO-K1 mAeq
T3 sequence (P35348 whole entry): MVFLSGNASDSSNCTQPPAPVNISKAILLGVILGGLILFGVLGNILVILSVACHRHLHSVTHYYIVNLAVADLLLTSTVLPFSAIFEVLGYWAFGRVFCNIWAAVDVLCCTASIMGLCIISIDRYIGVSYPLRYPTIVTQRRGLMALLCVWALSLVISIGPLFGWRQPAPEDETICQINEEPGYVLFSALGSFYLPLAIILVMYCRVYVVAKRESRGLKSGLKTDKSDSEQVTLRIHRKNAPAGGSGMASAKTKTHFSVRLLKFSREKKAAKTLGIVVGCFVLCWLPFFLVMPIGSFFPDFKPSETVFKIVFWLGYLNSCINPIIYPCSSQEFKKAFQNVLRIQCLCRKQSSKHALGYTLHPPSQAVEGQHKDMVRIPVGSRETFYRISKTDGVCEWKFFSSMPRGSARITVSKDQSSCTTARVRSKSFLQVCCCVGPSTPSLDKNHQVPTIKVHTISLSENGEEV
Description: Aequorin assay, Adrenergic α1A. The format is cell-based. The settings on record: antagonism, CHO-K1 mAeq, read-out: Activity (Antagonism: IC50), Adrenergic a1A. As for the experimental part: as §1, §2, §3, §4

The target of the next assay is T4, Serotonin 5-HT3 (Homo sapiens, UniProt P46098).
T4 construct: expressed in transfected cells; host or cells: HEK-293 mAeq
T4 sequence (P46098 24-478): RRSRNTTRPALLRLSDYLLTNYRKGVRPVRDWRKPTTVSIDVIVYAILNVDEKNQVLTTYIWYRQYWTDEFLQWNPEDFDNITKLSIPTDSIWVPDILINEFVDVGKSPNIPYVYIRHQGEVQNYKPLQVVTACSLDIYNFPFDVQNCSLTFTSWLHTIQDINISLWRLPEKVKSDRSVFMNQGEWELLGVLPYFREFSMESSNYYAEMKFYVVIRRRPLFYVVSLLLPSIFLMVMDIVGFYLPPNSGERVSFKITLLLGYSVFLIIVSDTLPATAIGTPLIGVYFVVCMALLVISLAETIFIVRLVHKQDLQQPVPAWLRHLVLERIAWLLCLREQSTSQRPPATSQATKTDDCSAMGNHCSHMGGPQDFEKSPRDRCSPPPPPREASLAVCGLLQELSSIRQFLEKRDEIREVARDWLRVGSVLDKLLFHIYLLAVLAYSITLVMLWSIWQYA
As to the kind of experiment: Aequorin assay, Serotonin 5-HT3. Type of assay: cell-based. The conditions noted are these: antagonism, HEK-293 mAeq. As for the experimental part:
as §1, §2, §3, §4

In assay [1] the test system is Glutamate (mG1u3/mG1u5/mG1u7). Description: Glutamate receptor assays (Aequorin mGlu3/mGlu5, cAMP mGluR7). Type of assay: cell-based, human. The conditions noted are these: Aequorin (mGluR3, mGluR5). As for the experimental part: Receptor […] activity assays were performed using 8′OH-2-CF3-dihydroergotamine (8′OH-2-CF3-DHE). Table 1 summarizes the cell lines (CHO-K1/HEK293 transfected with relevant human receptor) and the assays performed to detect any agonist or antagonist activity. […]
For agonist testing, 30 μL of cell suspension was mixed with 30 μL of test or reference agonist in a 384-well plate. The resulting emission of light was recorded using Hamamatsu Functional Drug Screening System 6000 (FDSS 6000) luminometer. […] The resulting emission of light was recorded using Hamamatsu Functional Drug Screening System 6000 (FDSS 6000) luminometer.
cAMP HTRF (Gi) studies were conducted to monitor activity for 8′OH-2CF3-dihydroergotamine (8′OH-2CF3-DHE) against the receptors indicated in Table 1 above. […] Lysis buffer was added and after a 1 hour incubation, cAMP concentrations was determined according to the manufacturer specification with the HTRF kit. […] Lysis buffer was added and after a 1 hour incubation, cAMP concentrations were determined according to the manufacturer specification, with the HTRF kit.

T1 sequence (P08908 whole entry): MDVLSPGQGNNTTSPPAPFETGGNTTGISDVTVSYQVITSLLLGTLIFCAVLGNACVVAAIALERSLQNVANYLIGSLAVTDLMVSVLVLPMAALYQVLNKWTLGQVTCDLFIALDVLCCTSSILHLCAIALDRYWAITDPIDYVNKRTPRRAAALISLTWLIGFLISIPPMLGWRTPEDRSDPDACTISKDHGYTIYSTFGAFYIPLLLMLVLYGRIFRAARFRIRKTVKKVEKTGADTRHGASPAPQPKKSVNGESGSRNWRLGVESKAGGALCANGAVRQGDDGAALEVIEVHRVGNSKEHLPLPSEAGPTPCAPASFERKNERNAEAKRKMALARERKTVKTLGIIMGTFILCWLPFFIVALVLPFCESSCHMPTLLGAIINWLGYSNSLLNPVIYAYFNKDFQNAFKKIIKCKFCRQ

For the molecule `CN1C[C@H](C(=O)N[C@]2(C)O[C@@]3(O)[C@@H]4CC[C@@H](O)N4C(=O)[C@H](Cc4ccccc4)N3C2=O)C[C@@H]2c3cccc4[nH]c(C(F)(F)F)c(c34)C[C@H]21` [8′OH-2-CF3-DHE, 8′-Hydroxy-2-CF3-dihydroergotamine], the EC50 was determined as 425 nM at Serotonin 5-HT1A and 607 nM at Serotonin 5-HT2A. Besides, the IC50 on Adrenergic α1A was 39.5 nM; at Serotonin 5-HT3, 2760 nM. The “Activity (Agonism: EC50; Antagonism: IC50), Glutamate (mG1u3/mG1u5/mG1u7)” value in assay [1] is reported as “Inactive”.
